Laboratory results reported in ChEMBL document CHEMBL1201862, “PubChem BioAssay data set” (2004).
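Exposure lasted 48 hours, with cells grown in 96-well plates and compounds tested at five concentrations. Here, GI50 denotes the concentration required for 50% inhibition of growth.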 Active and inactive are the calls of the source. No stated cut-off is given here; in the data, active = GI50 up to about 1.1 µM and inactive = higher.

Columns and labels:
Test in all cases: NCI anticancer screen, dose series, 48 h
[1] = system: BT-549
[2] = system: 786-0
[3] = system: MDA-MB-231
[4] = system: HOP-92
[5] = system: OVCAR-5
[6] = system: NCI-H226
[7] = system: MDA-MB-435
[8] = system: COLO 205
[9] = system: DU-145
[10] = system: HT-29
[11] = system: U-251
[12] = system: SNB-19
[13] = system: TK-10
[14] = system: NCI-H460
[15] = system: SW-620
[16] = system: HCC 2998
[17] = system: OVCAR-8
[18] = system: Hs-578T
[19] = system: RXF 393

Measured: GI50

Clc1ccc(Nc2nnc(CCCCCCCCc3nnc(Nc4ccc(Cl)cc4)o3)o2)cc1
inactive: [1] 31.9 µM | [2] 24.5 µM | [3] 44.2 µM | [4] 23.8 µM | [5] 23.7 µM | [6] 46 µM | [7] 42.7 µM | [8] 39.9 µM | [9] 25.5 µM | [10] 32 µM | [11] 38.3 µM | [12] 26.3 µM | [13] 55.8 µM | [14] 33.9 µM | [15] 48.5 µM | [16] 36.4 µM

O=C1Oc2ccccc2C(=O)/C1=C/NC(=S)NCc1ccccc1
inactive: [1] 5.09 µM | [2] 64.1 µM | [3] 71 µM | [4] > 100 µM | [5] > 100 µM | [6] > 100 µM | [7] 54.3 µM | [8] > 100 µM | [9] 93.1 µM | [10] > 100 µM | [11] 57.3 µM | [12] 43.6 µM | [13] 6.34 µM | [14] 70 µM | [15] 99.1 µM | [17] 41.1 µM | [16] 72.4 µM

COc1cc2c[n+]3c4c(c2c(OC)c1OC)CCCC4CC3 (stereo not drawn)
inactive: [2] > 100 µM | [3] > 100 µM | [4] > 100 µM | [5] > 100 µM | [7] > 100 µM | [8] > 100 µM | [9] > 100 µM | [10] > 100 µM | [11] 17 µM | [12] 36.6 µM | [18] 9.2 µM | [14] > 100 µM | [19] > 100 µM | [15] > 100 µM | [16] 98.4 µM

Cc1nc(O)nc(N(CCO)/N=C/c2ccc(Cl)cc2)c1C(=O)Nc1ccc(Cl)cc1
inactive: [2] > 100 µM | [3] 36.7 µM | [4] > 100 µM | [5] > 100 µM | [6] 72.6 µM | [7] > 100 µM | [8] > 100 µM | [9] > 100 µM | [10] > 100 µM | [11] 21.3 µM | [12] 83.9 µM | [13] 85.3 µM | [18] 32.5 µM | [14] > 100 µM | [19] 24.7 µM | [15] > 100 µM | [17] 99.5 µM | [16] > 100 µM

Cn1c(=O)c2nc[nH]c2n(C)c1=O [THEOPHYLLINE]
inactive: [2] > 100 µM | [3] > 100 µM | [4] > 100 µM | [5] > 100 µM | [6] > 100 µM | [8] > 100 µM | [9] > 100 µM | [13] > 100 µM | [18] > 100 µM | [14] > 100 µM | [15] > 100 µM | [17] > 100 µM | [16] > 100 µM

COc1cc(O)c2c(c1)OCC(Cc1ccc(O)cc1)C2=O (stereo not drawn)
inactive: [2] > 100 µM | [3] > 100 µM | [4] 37.9 µM | [5] > 100 µM | [6] > 100 µM | [7] > 100 µM | [8] > 100 µM | [9] > 100 µM | [10] > 100 µM | [11] > 100 µM | [12] > 100 µM | [13] > 100 µM | [18] 45.7 µM | [14] > 100 µM | [19] 21.1 µM | [15] > 100 µM | [17] > 100 µM

O=C1CC(=O)N(C2CCCCC2)C(=O)N1c1ccccc1S(=O)(=O)Oc1ccccc1
inactive: [1] 49.5 µM | [2] 18.1 µM | [3] > 100 µM | [4] 12.9 µM | [5] > 100 µM | [7] > 100 µM | [8] > 100 µM | [9] > 100 µM | [10] > 100 µM | [11] > 100 µM | [12] > 100 µM | [13] > 100 µM | [14] > 100 µM | [19] > 100 µM | [15] > 100 µM | [17] > 100 µM | [16] > 100 µM

[BH3-][P+]1(CC[P@@+]([BH3-])(c2ccccc2)c2ccccc2OC)[C@@H](C)[C@@H](O)[C@H](O)[C@@H]1C (stereo partly drawn)
inactive: [2] 27.2 µM | [3] 16 µM | [4] 16.6 µM | [5] 18.1 µM | [6] 17.3 µM | [7] 16.7 µM | [8] 17.8 µM | [9] 17.3 µM | [10] 22.6 µM | [11] 16.9 µM | [12] 17 µM | [13] 17.8 µM | [18] 10.3 µM | [14] 16.4 µM | [19] 16.4 µM | [15] 16.9 µM | [17] 17.5 µM

Fc1sc2c(c1F)C1CCC2C1 (stereo not drawn)
inactive: [2] > 100 µM | [3] 83.2 µM | [4] > 100 µM | [5] > 100 µM | [6] > 100 µM | [7] 56.4 µM | [8] 43.2 µM | [9] 85.7 µM | [10] 68.9 µM | [11] 97.7 µM | [12] > 100 µM | [13] > 100 µM | [18] 19.7 µM | [14] > 100 µM | [19] 88.1 µM | [15] > 100 µM | [17] > 100 µM | [16] > 100 µM
